Data reported in US6596762B2, “Antioxidant compositions and use for treatment of hepatic steatosis and steatohepatitis” (The Regents of The University of Colorado, priority 2001, dated 2003).

Legend:
[1] = test system: fat-laden hepatocytes from obese Zucker (fa/fa) rats; experiment: Hydroperoxide generation (DCF-DA fluorescence) in isolated hepatocytes exposed to GCDC; type: cell-based, rat; settings: fat-laden cells exposed to GCDC, compared with lean cells
Description: (§1) Briefly, 8-week-old obese Zucker (fa/fa) rats (Zucker rat model of hepatic steatosis) and lean (Fa/?) litter-mates were sacrificed. Liver blood tests and liver histology were obtained, and hepatocytes isolated by the recirculating collagenase perfusion technique. Initial trypan blue exclusion exceeded 94%. Cells were incubated in suspension with glycochenodeoxycholic acid (GCDC) (0,-1000 μM) in Krebs-Ringer-HEPES for 4 hours. Aliquots of cells were removed hourly for determination of: (1) hydroperoxide generation measured by fluorescence of dichlorofluororescin diacetate (DCF-DA) that was preloaded into hepatocytes; (2) %LDH release as a measure of cell necrosis; and (3) DAPI fluorescence microscopy of fixed cells to quantify apoptosis. Liver histology was quantitated using a grading system.

[2] = test system: lean hepatocytes from lean (Fa/?) Zucker litter-mates; experiment: Apoptosis by DAPI fluorescence microscopy of isolated hepatocytes exposed to GCDC; type: cell-based, rat; settings: lean cells, 100 μM GCDC × 3 hours
Description: as §1

[3] = test system: fat-laden hepatocytes from obese Zucker (fa/fa) rats; experiment: as above; type: cell-based, rat; settings: fat-laden cells, 100 μM GCDC × 3 hours
Description: as §1

[4] = test system: lean hepatocytes from lean (Fa/?) Zucker litter-mates; experiment: Cell necrosis (%LDH release) of isolated hepatocytes exposed to GCDC; type: cell-based, rat; settings: lean cells, 100 μM GCDC × 3 hours
Description: as §1

[5] = test system: fat-laden hepatocytes from obese Zucker (fa/fa) rats; experiment: as above; type: cell-based, rat; settings: fat-laden cells, 100 μM GCDC × 3 hours
Description: as §1

fat-laden hepatocytes = experiment: Protection of fat-laden liver cells exposed to bile acids; type: cell-based, rat; settings: fat-laden liver cells exposed to relatively low concentrations of bile acids
Source text: The antioxidants in this mixture were chosen for the following scientific reasons. […] Briefly, fat-laden hepatocytes were isolated from the Zucker rat model of hepatic steatosis and from lean littermate Zucker rats. […] Without being bound by theory, the present inventor believes that the fatty liver is more prone to hepatocyte necrosis and thus is at risk for severe injury from minor and major insults. […] Studies from the present inventor's laboratory have shown that the effect of vitamin E is probably mediated through reduction of free radical production from mitochondria (Yerushalmi et al., Hepatology 2001; 33:616-26, incorporated herein by reference in its entirety).

children with NASH = settings: oral vitamin E 400 to 1200 IU per day, during therapy; cited from earlier work
[6] = test system: isolated rat liver mitochondria; experiment: Protection of isolated liver mitochondria against toxic bile acids
Source text: (§2) Beta carotene and other carotenoids also function as antioxidants in tissues with low oxygen content (such as the liver) and the present inventor has shown beta carotene to have a protective role in hepatic mitochondria that prevents processes that generate oxygen free radicals (unpublished data). […] (Sokol et al., Hepatology 2001;34(2):277A, incorporated herein by reference in its entirety).

[7] = test system: isolated human liver mitochondria; experiment: as above
Source text: as §2

Compound: CC(CCC(=O)NCC(=O)O)C1CCC2C3C(O)CC4CC(O)CCC4(C)C3CCC12C (centres unmarked) [GCDC, glycochenodeoxycholic acid]
- generation of hydroperoxides [1]: trend was present towards increased generation of hydroperoxides
- apoptosis [2]: 31%
- apoptosis [3]: 8%
- necrosis (%LDH release) [4]: 24%
- necrosis (%LDH release) [5]: 54%

Compound: Cc1c(C)c2c(c(C)c1O)CC[C@@](C)(CCC[C@H](C)CCC[C@H](C)CCCC(C)C)O2 [alpha tocopherol]
- oxidative stress and hepatocyte cell death (fat-laden hepatocytes): will prevent oxidative stress and hepatocyte cell death
- serum AST and ALT (children with NASH): reduced

Compound: CC1=C(/C=C/C(C)=C/C=C/C(C)=C/C=C/C=C(C)/C=C/C=C(C)/C=C/C2=C(C)CCCC2(C)C)C(C)(C)CCC1 [beta carotene]
- mitochondrial swelling and injury induced by toxic bile acids [6]: protects the mitochondria from swelling and injury
- production of free radicals ([6]; toxic bile acids): markedly diminishes the production of free radicals
- mitochondrial swelling and injury induced by toxic bile acids [7]: protects the mitochondria from swelling and injury
- production of free radicals ([7]; toxic bile acids): markedly diminishes the production of free radicals
